How the values were obtained:
NCI-H64 = assay: cells; assay type: functional, cell-based, Homo sapiens; conditions: Homo sapiens, NCI-H64;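 also: growth inhibition of NCI-H64 cells, read out with a cell viability assay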
Description: SANGER: Inhibition of human NCI-H64 cell growth in a cell viability assay.

NB1 = assay: cells; assay type: functional, cell-based, Homo sapiens; conditions: Homo sapiens, NB1;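 also: reduction of NB1 cell proliferation, read out with a viability assay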
Description: SANGER: Inhibition of human NB1 cell growth in a cell viability assay.

MRK-nu-1 = assay: cells; assay type: functional, cell-based, Homo sapiens; conditions: Homo sapiens, MRK-nu-1;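 also: cell viability assay measuring growth suppression of human MRK-nu-1 cells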
Description: SANGER: Inhibition of human MRK-nu-1 cell growth in a cell viability assay.

KMOE-2 = assay: cells; assay type: functional, cell-based, Homo sapiens; conditions: Homo sapiens, KMOE-2;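 also: growth inhibition of human KMOE-2 cells, read out with a cell viability assay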
Description: SANGER: Inhibition of human KMOE-2 cell growth in a cell viability assay.

RL = assay: cells; assay type: functional, cell-based, Homo sapiens; conditions: Homo sapiens, RL
Description: SANGER: Inhibition of human RL cell growth in a cell viability assay.

SNU-C1 = assay: cells; assay type: functional, cell-based, Homo sapiens; conditions: Homo sapiens, SNU-C1;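 also: growth inhibition of SNU-C1 human cells, read out by a cell viability assay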
Description: SANGER: Inhibition of human SNU-C1 cell growth in a cell viability assay.

RL95-2 = assay: cells; assay type: functional, cell-based, Homo sapiens; conditions: Homo sapiens, RL95-2;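 also: RL95-2 growth inhibition determined through a cell viability readout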
Description: SANGER: Inhibition of human RL95-2 cell growth in a cell viability assay.

NCI-H2081 = assay: cells; assay type: functional, cell-based, Homo sapiens; conditions: Homo sapiens, NCI-H2081;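 also: growth inhibition of human NCI-H2081 cells, read out with a cell viability assay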
Description: SANGER: Inhibition of human NCI-H2081 cell growth in a cell viability assay.

CHP-126 = assay: cells; assay type: functional, cell-based, Homo sapiens; conditions: Homo sapiens, CHP-126
Description: SANGER: Inhibition of human CHP-126 cell growth in a cell viability assay.

BC1 cell line = assay: SANGER: Inhibition of human BC-1 cell growth in a cell viability assay.; assay type: functional, cell-based; conditions: Homo sapiens, BC1
YT = assay: cells; assay type: functional, cell-based, Homo sapiens; conditions: Homo sapiens, YT
Description: SANGER: Inhibition of human YT cell growth in a cell viability assay.

DMS-153 = assay: cells; assay type: functional, cell-based, Homo sapiens; conditions: Homo sapiens, DMS-153
Description: SANGER: Inhibition of human DMS-153 cell growth in a cell viability assay.

OPM-2 = assay: cells; assay type: functional, cell-based, Homo sapiens; conditions: Homo sapiens, OPM-2;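 also: growth of OPM-2 cells measured with a viability assay, IC50 for suppression of proliferation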
Description: SANGER: Inhibition of human OPM-2 cell growth in a cell viability assay.

MFH-ino = assay: cells; assay type: functional, cell-based, Homo sapiens; conditions: Homo sapiens, MFH-ino;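 also: growth inhibition of human MFH-ino cells, read out by a cell viability assay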
Description: SANGER: Inhibition of human MFH-ino cell growth in a cell viability assay.

SK-MM-2 = assay: cells; assay type: functional, cell-based, Homo sapiens; conditions: Homo sapiens, SK-MM-2;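 also: growth inhibition of human SK-MM-2 cells, read out with a cell viability assay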
Description: SANGER: Inhibition of human SK-MM-2 cell growth in a cell viability assay.

MHH-CALL-2 = assay: cells; assay type: functional, cell-based, Homo sapiens; conditions: Homo sapiens, MHH-CALL-2;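 also: growth inhibition of the cell line, read out in a cell viability assay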
Description: SANGER: Inhibition of human MHH-CALL-2 cell growth in a cell viability assay.

HuTu80 = assay: cells; assay type: functional, cell-based, Homo sapiens, HUTU-80; conditions: Homo sapiens, HuTu80;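 also: growth inhibition of HuTu80 human cells, determined with a cell viability readout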
Description: SANGER: Inhibition of human HUTU-80 cell growth in a cell viability assay.

A673 = assay: cells; assay type: functional, cell-based; conditions: Homo sapiens;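 also: growth inhibition of human A673 cells, read out through a cell viability assay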
Description: SANGER: Inhibition of human A673 cell growth in a cell viability assay.

T84 = assay: cells; assay type: functional, cell-based; conditions: Homo sapiens;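 also: growth inhibition measured with a cell viability readout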
Description: SANGER: Inhibition of human T84 cell growth in a cell viability assay.

U2OS = assay: cells; assay type: functional, cell-based, U-2-OS; conditions: Homo sapiens;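 also: growth inhibition of human U-2-OS cells, determined with a cell viability assay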
Description: SANGER: Inhibition of human U-2-OS cell growth in a cell viability assay.

CP50-MEL-B = assay: cells; assay type: functional, cell-based; conditions: Homo sapiens;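 also: growth inhibition of the human cell line, measured with a cell viability read-out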
Description: SANGER: Inhibition of human CP50-MEL-B cell growth in a cell viability assay.

GMS-10 = assay: cells; assay type: functional, cell-based; conditions: Homo sapiens;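 also: growth inhibition of GMS-10 cells, read out as cell viability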
Description: SANGER: Inhibition of human GMS-10 cell growth in a cell viability assay.

SW837 = assay: cells; assay type: functional, cell-based; conditions: Homo sapiens;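 also: growth inhibition of SW837 cells, determined with a cell viability assay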
Description: SANGER: Inhibition of human SW837 cell growth in a cell viability assay.

COR-L23 = assay: cells; assay type: functional, cell-based; conditions: Homo sapiens;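 also: cell viability assay measuring how strongly compounds suppress growth of COR-L23 cells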
Description: SANGER: Inhibition of human COR-L23 cell growth in a cell viability assay.

NCI-H441 = assay: cells; assay type: functional, cell-based; conditions: Homo sapiens;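 also: growth inhibition of NCI-H441 cells, read out with a cell viability assay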
Description: SANGER: Inhibition of human NCI-H441 cell growth in a cell viability assay.

BEN = assay: cells; assay type: functional, cell-based; conditions: Homo sapiens;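 also: growth inhibition of the BEN cell line, read out with a cell viability assay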
Description: SANGER: Inhibition of human BEN cell growth in a cell viability assay.

UMUC3 = assay: cells; assay type: functional, cell-based; conditions: Homo sapiens;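 also: growth inhibition of human UM-UC-3 cells, read out with a cell viability assay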
Description: SANGER: Inhibition of human UM-UC-3 cell growth in a cell viability assay.

SCC-9 = assay: cells; assay type: functional, cell-based; conditions: Homo sapiens;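 also: Read-out is a cell viability assay, with values giving inhibition of cell growth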
Description: SANGER: Inhibition of human SCC-9 cell growth in a cell viability assay.

SCC-4 = assay: cells; assay type: functional, cell-based; conditions: Homo sapiens;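 also: growth inhibition of human SCC-4 cells, read out as cell viability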
Description: SANGER: Inhibition of human SCC-4 cell growth in a cell viability assay.

BFTC-905 = assay: cells; assay type: functional, cell-based; conditions: Homo sapiens
Description: SANGER: Inhibition of human BFTC-905 cell growth in a cell viability assay.

HuP-T3 = assay: cells; assay type: functional, cell-based; conditions: Homo sapiens;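 also: HuP-T3 cell growth inhibition, read out with a cell viability assay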
Description: SANGER: Inhibition of human HuP-T3 cell growth in a cell viability assay.

HT-1080 = assay: cells; assay type: functional, cell-based; conditions: Homo sapiens
Description: SANGER: Inhibition of human HT-1080 cell growth in a cell viability assay.

NCI-H1623 = assay: cells; assay type: functional, cell-based; conditions: Homo sapiens;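 also: cell viability assay used as the read-out for growth inhibition of NCI-H1623 cells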
Description: SANGER: Inhibition of human NCI-H1623 cell growth in a cell viability assay.

FTC-133 = assay: cells; assay type: functional, cell-based; conditions: Homo sapiens
SK-MES-1 = assay: cells; assay type: functional, cell-based; conditions: Homo sapiens;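 also: growth inhibition of human SK-MES-1 cells, read out with a cell viability assay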
Description: SANGER: Inhibition of human SK-MES-1 cell growth in a cell viability assay.

CHL-1 = assay: cells; assay type: functional, cell-based; conditions: Homo sapiens;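 also: cell growth inhibition, read out with a cell viability assay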
Description: SANGER: Inhibition of human CHL-1 cell growth in a cell viability assay.

BXPC-3 = assay: cells; assay type: functional, cell-based; conditions: Homo sapiens;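 also: growth inhibition of human BxPC-3 cells, read out by a cell viability assay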
Description: SANGER: Inhibition of human BxPC-3 cell growth in a cell viability assay.

KYSE-510 = assay: cells; assay type: functional, cell-based; conditions: Homo sapiens;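 also: cell viability readout used to measure how strongly growth of the cell line is suppressed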
Description: SANGER: Inhibition of human KYSE-510 cell growth in a cell viability assay.

SJRH30 = assay: cells; assay type: functional, cell-based; conditions: Homo sapiens;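 also: growth inhibition of human SJRH30 cells, read out with a cell viability assay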
Description: SANGER: Inhibition of human SJRH30 cell growth in a cell viability assay.

NCI-H2342 = assay: cells; assay type: functional, cell-based; conditions: Homo sapiens;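 also: growth inhibition of the cancer cell line, determined with a cell viability assay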
Description: SANGER: Inhibition of human NCI-H2342 cell growth in a cell viability assay.

CAMA-1 = assay: cells; assay type: functional, cell-based; conditions: Homo sapiens;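 also: growth inhibition of CAMA-1 cells, read out with a cell viability assay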
Description: SANGER: Inhibition of human CAMA-1 cell growth in a cell viability assay.

OVCAR-5 = assay: cells; assay type: functional, cell-based; conditions: Homo sapiens;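 also: growth inhibition of human OVCAR-5 cells, read out with a cell viability assay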
Description: SANGER: Inhibition of human OVCAR-5 cell growth in a cell viability assay.

CWR22R = assay: cells; assay type: functional, cell-based; conditions: Homo sapiens, 22Rv1;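 also: growth inhibition of 22Rv1 cells, read out with a cell viability assay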
Description: SANGER: Inhibition of human 22RV1 cell growth in a cell viability assay.

U-251 = assay: cells; assay type: functional, cell-based; conditions: Homo sapiens;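 also: growth inhibition of human U-251 cells, read out through a cell viability assay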
Description: SANGER: Inhibition of human U251 cell growth in a cell viability assay.

NCI-H2452 = assay: cells; assay type: functional, cell-based; conditions: Homo sapiens;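 also: growth inhibition of NCI-H2452 cells, read out with a cell viability assay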
Description: SANGER: Inhibition of human NCI-H2452 cell growth in a cell viability assay.

NCI-H1693 = assay: cells; assay type: functional, cell-based; conditions: Homo sapiens;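 also: growth inhibition of the human cell line, read out with a cell viability assay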
Description: SANGER: Inhibition of human NCI-H1693 cell growth in a cell viability assay.

MFE-280 = assay: cells; assay type: functional, cell-based; conditions: Homo sapiens;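 also: growth inhibition of MFE-280 cells, determined with a cell viability readout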
Description: SANGER: Inhibition of human MFE-280 cell growth in a cell viability assay.

FaDu = assay: cells; assay type: functional, cell-based; conditions: Homo sapiens;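 also: cell viability readout of growth inhibition in FaDu cells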
Description: SANGER: Inhibition of human FADU cell growth in a cell viability assay.

SW1088 = assay: cells; assay type: functional, cell-based; conditions: Homo sapiens;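 also: growth inhibition of human SW1088 cells, read out by a cell viability assay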
Description: SANGER: Inhibition of human SW1088 cell growth in a cell viability assay.

HOP-92 = assay: cells; assay type: functional, cell-based; conditions: Homo sapiens;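 also: cell viability readout, with IC50 reflecting inhibition of HOP-92 cell growth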
Description: SANGER: Inhibition of human HOP-92 cell growth in a cell viability assay.

ABC-1 = assay: cells; assay type: functional, cell-based; conditions: Homo sapiens;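 also: growth inhibition of human ABC-1 cells, read out by a cell viability assay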
Description: SANGER: Inhibition of human ABC-1 cell growth in a cell viability assay.

5637 = assay: cells; assay type: functional, cell-based; conditions: Homo sapiens
Description: SANGER: Inhibition of human 5637 cell growth in a cell viability assay.

SK-N-AS = assay: cells; assay type: functional, cell-based; conditions: Homo sapiens;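 also: growth inhibition of human SK-N-AS cells, measured with a cell viability assay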
Description: SANGER: Inhibition of human SK-N-AS cell growth in a cell viability assay.

HuCCT-1 = assay: cells; assay type: functional, cell-based, HuCCT1; conditions: Homo sapiens;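 also: growth inhibition of HuCCT-1 cells, read out by a cell viability assay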
Description: SANGER: Inhibition of human HuCCT1 cell growth in a cell viability assay.

ESS-1 = assay: cells; assay type: functional, cell-based; conditions: Homo sapiens;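 also: growth inhibition of human ESS-1 cells, read out by a cell viability assay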
Description: SANGER: Inhibition of human ESS-1 cell growth in a cell viability assay.

TYK-nu = assay: cells; assay type: functional, cell-based; conditions: Homo sapiens;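 also: growth inhibition of human TYK-nu cells, read out by a cell viability assay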
Description: SANGER: Inhibition of human TYK-nu cell growth in a cell viability assay.

COLO-680N = assay: cells; assay type: functional, cell-based; conditions: Homo sapiens;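 also: cell viability assay used to measure inhibition of COLO-680N cell growth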
Description: SANGER: Inhibition of human COLO-680N cell growth in a cell viability assay.

SKG-IIIa = assay: cells; assay type: functional, cell-based; conditions: Homo sapiens;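 also: cell growth inhibition, read out with a cell viability assay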
Description: SANGER: Inhibition of human SKG-IIIa cell growth in a cell viability assay.

HOS = assay: cells; assay type: functional, cell-based; conditions: Homo sapiens
Description: SANGER: Inhibition of human HOS cell growth in a cell viability assay.

SMILES: CC(C)C[C@H](NC(=O)[C@H](Cc1ccccc1)NC(=O)c1cnccn1)B(O)O [BORTEZOMIB]
- IC50 (NCI-H64): 0.00244 µM
- IC50 (NB1): 0.00688 µM
- IC50 (MRK-nu-1): > 0.02 µM
- IC50 (KMOE-2): 0.00223 µM
- IC50 (RL): > 0.02 µM
- IC50 (SNU-C1): > 0.02 µM
- IC50 (RL95-2): 0.00379 µM
- IC50 (NCI-H2081): 0.0101 µM
- IC50 (CHP-126): 0.00506 µM
- IC50 (BC1 cell line): 0.00231 µM
- IC50 (YT): > 0.02 µM
- IC50 (DMS-153): > 0.02 µM
- IC50 (OPM-2): 0.00133 µM
- IC50 (MFH-ino): 0.000443 µM
- IC50 (SK-MM-2): 0.00109 µM
- IC50 (MHH-CALL-2): > 0.02 µM
- IC50 (HuTu80): 0.000533 µM

SMILES: CCCCCCCCCCCC1=C(O)C(=O)C=C(O)C1=O [EMBELIN]
- IC50 (A673): 12.6 µM
- IC50 (T84): 9.87 µM
- IC50 (U2OS): > 32 µM
- IC50 (NCI-H64): > 32 µM
- IC50 (CP50-MEL-B): > 32 µM
- IC50 (GMS-10): 23 µM
- IC50 (NB1): > 32 µM
- IC50 (SW837): 18 µM
- IC50 (MRK-nu-1): 12.9 µM
- IC50 (COR-L23): 9.63 µM
- IC50 (NCI-H441): 6.01 µM
- IC50 (BEN): > 32 µM
- IC50 (UMUC3): 10.1 µM
- IC50 (SCC-9): > 32 µM
- IC50 (SCC-4): 17.4 µM
- IC50 (BFTC-905): 5.03 µM
- IC50 (HuP-T3): > 32 µM
- IC50 (KMOE-2): 24.3 µM
- IC50 (HT-1080): 4.76 µM
- IC50 (NCI-H1623): 25.4 µM
- IC50 (FTC-133): > 32 µM
- IC50 (SK-MES-1): 5.01 µM
- IC50 (CHL-1): 4.7 µM
- IC50 (RL): > 32 µM
- IC50 (BXPC-3): 6.41 µM
- IC50 (KYSE-510): 5.81 µM
- IC50 (SNU-C1): 10.3 µM
- IC50 (NCI-H2081): > 32 µM
- IC50 (CHP-126): > 32 µM
- IC50 (SJRH30): 7.97 µM
- IC50 (NCI-H2342): 6.99 µM
- IC50 (CAMA-1): 7.09 µM
- IC50 (OVCAR-5): > 32 µM
- IC50 (CWR22R): 22.5 µM
- IC50 (BC1 cell line): 5.03 µM
- IC50 (YT): 12.8 µM
- IC50 (DMS-153): > 32 µM
- IC50 (OPM-2): > 32 µM
- IC50 (U-251): 9.69 µM
- IC50 (NCI-H2452): > 32 µM
- IC50 (MFH-ino): 5.58 µM
- IC50 (NCI-H1693): > 32 µM
- IC50 (SK-MM-2): > 32 µM
- IC50 (MFE-280): 15.7 µM
- IC50 (FaDu): 15.8 µM
- IC50 (SW1088): 16.7 µM
- IC50 (HOP-92): 7.88 µM
- IC50 (ABC-1): > 32 µM
- IC50 5637: 13.2 µM
- IC50 (SK-N-AS): 13.8 µM
- IC50 (HuCCT-1): 9.92 µM
- IC50 (MHH-CALL-2): > 32 µM
- IC50 (HuTu80): 2.35 µM
- IC50 (ESS-1): 9.42 µM
- IC50 (TYK-nu): 22.6 µM
- IC50 (COLO-680N): 19.4 µM
- IC50 (SKG-IIIa): > 32 µM
- IC50 (HOS): 15.3 µM

SMILES: OC[C@H](Cc1ccccc1)Nc1nc(Oc2ccc3c(c2)CCC3)nc2c1ncn2Cc1ccc(-c2ccccc2)cc1
- IC50 (A673): > 10.2 µM
- IC50 (T84): > 10.2 µM
- IC50 (U2OS): > 10.2 µM
- IC50 (NCI-H64): > 10.2 µM
- IC50 (CP50-MEL-B): > 10.2 µM
- IC50 (GMS-10): > 10.2 µM
- IC50 (NB1): 9.3 µM
- IC50 (SW837): > 10.2 µM
- IC50 (MRK-nu-1): > 10.2 µM
- IC50 (COR-L23): 6.89 µM
- IC50 (NCI-H441): > 10.2 µM
- IC50 (BEN): > 10.2 µM
- IC50 (UMUC3): > 10.2 µM
- IC50 (SCC-9): > 10.2 µM
- IC50 (SCC-4): > 10.2 µM
- IC50 (BFTC-905): 5.02 µM
- IC50 (HuP-T3): > 10.2 µM
- IC50 (KMOE-2): > 10.2 µM
- IC50 (HT-1080): 5.13 µM
- IC50 (NCI-H1623): > 10.2 µM
- IC50 (FTC-133): > 10.2 µM
- IC50 (SK-MES-1): 8.44 µM
- IC50 (CHL-1): > 10.2 µM
- IC50 (RL): > 10.2 µM
- IC50 (BXPC-3): > 10.2 µM
- IC50 (KYSE-510): 3.45 µM
- IC50 (SNU-C1): 4.22 µM
- IC50 (NCI-H2081): > 10.2 µM
- IC50 (CHP-126): > 10.2 µM
- IC50 (SJRH30): > 10.2 µM
- IC50 (NCI-H2342): 3.72 µM
- IC50 (CAMA-1): 9.65 µM
- IC50 (OVCAR-5): > 10.2 µM
- IC50 (CWR22R): > 10.2 µM
- IC50 (BC1 cell line): > 10.2 µM
- IC50 (YT): > 10.2 µM
- IC50 (DMS-153): > 10.2 µM
- IC50 (OPM-2): > 10.2 µM
- IC50 (U-251): > 10.2 µM
- IC50 (NCI-H2452): > 10.2 µM
- IC50 (MFH-ino): 2.41 µM
- IC50 (NCI-H1693): 7.05 µM
- IC50 (SK-MM-2): > 10.2 µM
- IC50 (MFE-280): > 10.2 µM
- IC50 (FaDu): > 10.2 µM
- IC50 (SW1088): > 10.2 µM
- IC50 (HOP-92): > 10.2 µM
- IC50 (ABC-1): > 10.2 µM
- IC50 5637: 4.18 µM
- IC50 (SK-N-AS): > 10.2 µM
- IC50 (HuCCT-1): > 10.2 µM
- IC50 (MHH-CALL-2): > 10.2 µM
- IC50 (HuTu80): 1.31 µM
- IC50 (ESS-1): > 10.2 µM
- IC50 (TYK-nu): > 10.2 µM
- IC50 (COLO-680N): > 10.2 µM
- IC50 (SKG-IIIa): > 10.2 µM
- IC50 (HOS): 3.08 µM

From ChEMBL document CHEMBL1201861, “Genomics of Drug Sensitity in Cancer screening data, Wellcome Trust Sanger Institute”
